Experimental findings from ChEMBL document CHEMBL5154655, “Identification of indole-based activators of insulin degrading enzyme” (Eur J Med Chem, 2022) are described below.

Converted amounts (≈) assume the structure as drawn.

One data set deals with T1, Insulin-degrading enzyme (Homo sapiens, UniProt P14735).
T1 sequence (P14735 whole entry): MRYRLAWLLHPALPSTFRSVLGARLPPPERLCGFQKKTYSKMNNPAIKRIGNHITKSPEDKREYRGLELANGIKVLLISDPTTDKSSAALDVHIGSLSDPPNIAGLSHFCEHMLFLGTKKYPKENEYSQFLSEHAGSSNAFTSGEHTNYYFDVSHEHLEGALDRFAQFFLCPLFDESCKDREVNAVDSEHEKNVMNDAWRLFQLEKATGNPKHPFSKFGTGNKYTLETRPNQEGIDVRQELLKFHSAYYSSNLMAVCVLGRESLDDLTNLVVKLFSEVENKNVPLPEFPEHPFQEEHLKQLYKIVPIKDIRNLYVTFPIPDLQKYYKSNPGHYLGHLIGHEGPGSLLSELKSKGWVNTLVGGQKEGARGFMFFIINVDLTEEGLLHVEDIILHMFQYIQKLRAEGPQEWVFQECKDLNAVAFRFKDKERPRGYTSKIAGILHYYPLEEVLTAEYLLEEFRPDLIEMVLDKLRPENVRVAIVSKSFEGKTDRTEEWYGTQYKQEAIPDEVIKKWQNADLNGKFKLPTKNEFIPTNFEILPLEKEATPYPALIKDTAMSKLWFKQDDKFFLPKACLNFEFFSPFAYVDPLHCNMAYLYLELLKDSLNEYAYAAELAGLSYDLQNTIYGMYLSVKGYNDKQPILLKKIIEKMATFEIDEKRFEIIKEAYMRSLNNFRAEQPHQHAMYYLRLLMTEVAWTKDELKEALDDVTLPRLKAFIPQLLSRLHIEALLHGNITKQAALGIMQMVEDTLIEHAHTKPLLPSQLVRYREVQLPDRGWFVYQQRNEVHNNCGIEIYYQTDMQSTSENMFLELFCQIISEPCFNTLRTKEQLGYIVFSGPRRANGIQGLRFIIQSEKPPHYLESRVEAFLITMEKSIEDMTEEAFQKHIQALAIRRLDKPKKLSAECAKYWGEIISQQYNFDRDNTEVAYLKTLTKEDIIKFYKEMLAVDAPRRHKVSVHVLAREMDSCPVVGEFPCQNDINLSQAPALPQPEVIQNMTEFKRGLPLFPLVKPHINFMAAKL
Briefly: Activation of human recombinant IDE using ATTO 655-Cys-Lys-Leu-Val-Phe-Phe-Ala-Glu-Asp-trp as substrate incubated for 10 mins followed by substrate addition and measured after 20 mins by fluorescence spectrophotometer analysis.

Data set [1] is described as follows: Solubility of the compound at 100 uM. Format: physicochemical.
A short description of data set [2]: Lipophilicity, logD of the compound in 1-octanol and phosphate buffer at pH 7.4 incubated for 2 hrs under shaking condition by LC-MS/MS analysis. It is filed as physicochemical. The conditions noted are these: 1-octanol/phosphate buffer.
Data set [3] in a line: Dissociation constant, pKa of the compound. Format: physicochemical.
Data set [4] is described as follows: Solubility of the compound at 15 uM. It is filed as physicochemical.
Data set [5] is described as follows: Aqueous thermodynamic solubility of the compound in phosphate buffer/MeOH at pH 7.4 measured after 24 hrs by LC-MS/MS analysis. It is filed as physicochemical. The conditions noted are these: read-out: Therm_solubility.
Data set [6] can be described thus: Stability in rat plasma assessed as half life at 10 uM. It is filed as ADME, cell-free.

The EC50 is the concentration needed to bring the measured effect to its halfway point. As for `O=C(NCCCn1ccnc1)NCCc1cn(S(=O)(=O)c2ccccc2)c2ccccc12`, the EC50 at Insulin-degrading enzyme was 10.2 µM.
As for `O=C(CCCc1cn(S(=O)(=O)c2ccsc2)c2ccccc12)NCCCn1ccnc1`, on Insulin-degrading enzyme, the EC50 was 13.8 µM.
Regarding `O=C(CCCc1cn(C(=O)c2ccc(Cl)cc2)c2ccccc12)NCCCn1ccnc1`, the solubility result in data set [1] is “Insoluble”.
One may read the logD as lipophilicity at a set pH, counting ionised and neutral species. Low readings indicate lower lipophilicity, high ones higher lipophilicity. In general, pKa refers to the pH at which an ionisable group is half protonated. A lower pKa goes with a group that gives up its proton readily. Regarding `O=C(CCCc1cn(S(=O)(=O)c2ccccc2)c2ccccc12)NCCCn1ccnc1`, the EC50 on Insulin-degrading enzyme was 13.2 µM. In addition, the logD at 2 h in data set [2] is 2.7. For the same molecule, the pKa in data set [3] was determined as 6.9. The solubility result in data set [4] was “Soluble”.
For `O=C(CCCc1cn(-c2ccccc2)c2ccccc12)NCCCn1ccnc1`, the solubility result in data set [1] is on record as “Insoluble”.
Take `O=C(CCCC1C(=O)Nc2ccccc21)NCCCn1ccnc1` (stereo unspecified): on Insulin-degrading enzyme, the EC50 is 38.9 µM.
For `O=C(CCCc1cn(C(=O)c2ccc(F)cc2)c2ccccc12)NCCCn1ccnc1`, the solubility entry in data set [1] is “Insoluble”.
`O=C(CCCCc1cn(S(=O)(=O)c2ccccc2)c2ccccc12)NCCCn1ccnc1`: the solubility entry in data set [1] is recorded as “Insoluble”.
Turning to `O=C(CCCc1cn(S(=O)(=O)c2cccnc2)c2ccccc12)NCCCn1ccnc1`, at Insulin-degrading enzyme, the EC50 is 26.9 µM.
In data set [3], `O=C(CCCc1cn(S(=O)(=O)c2ccccc2)c2ccccc12)NCCCN1CCCC1` gave a pKa of 8.8.
With `O=C(CCCc1cn(S(=O)(=O)c2cccc(F)c2)c2ccccc12)NCCCn1ccnc1`, in data set [1], the solubility result is “Insoluble”. Besides, the EC50 at Insulin-degrading enzyme was 10.2 µM.
With `O=C(CCCc1cn(S(=O)(=O)c2ccc(F)cc2)c2ccccc12)NCCCn1ccnc1`, the solubility entry in data set [1] was “Insoluble”.
For the molecule `O=C(NCCCn1ccnc1)c1cn(S(=O)(=O)c2ccccc2)c2ccccc12`, the solubility result in data set [1] is reported as “Insoluble”.
For `CS(=O)(=O)n1cc(CCCC(=O)NCCCn2ccnc2)c2ccccc21`, the EC50 on Insulin-degrading enzyme is 26.9 µM.
The same measure, in the same setting: the result for `CN(CCCn1ccnc1)C(=O)CCCc1cn(S(=O)(=O)c2ccccc2)c2ccccc12` reads 14.1 µM; that for `O=C(CCCc1nn(S(=O)(=O)c2ccccc2)c2ccccc12)NCCCn1ccnc1`, 12.3 µM.
As usually defined, the half-life is the time needed for the level to fall by half in the phase considered. As for `O=C(CCCc1cn(S(=O)(=O)c2cccs2)c2ccccc12)NCCCn1ccnc1`, the solubility thermodynamic at 24 h in data set [5] was 8.9 µM (≈ 4.06 µg/mL). The logD at 2 h in data set [2] stood at 2.7. Also, the half-life at 10 µM in data set [6] is more than 1440 min.
Turning to `O=C(CCCc1cn(S(=O)(=O)c2ccccc2F)c2ccccc12)NCCCn1ccnc1`, the solubility result in data set [1] is given as “Insoluble”.
For the molecule `O=C(CCc1cn(S(=O)(=O)c2ccccc2)c2ccccc12)NCCCn1ccnc1`, the EC50 at Insulin-degrading enzyme was 15.5 µM.
For the molecule `O=C(CCCc1cn(S(=O)(=O)c2cccc3nsnc23)c2ccccc12)NCCCn1ccnc1`, the solubility entry in data set [1] is recorded as “Insoluble”.
For the molecule `Cn1cnc(S(=O)(=O)n2cc(CCCC(=O)NCCCn3ccnc3)c3ccccc32)c1`, the EC50 on Insulin-degrading enzyme is 28.8 µM.
Consider `N[C@@H](Cc1cn(S(=O)(=O)c2ccccc2)c2ccccc12)C(=O)NCCCn1ccnc1`, for which the EC50 at Insulin-degrading enzyme is 14.5 µM.
As for `O=C(CCCc1cn(S(=O)(=O)c2ccc(-c3ccccc3)cc2)c2ccccc12)NCCCn1ccnc1`, in data set [1], the solubility entry is recorded as “Insoluble”.
Consider `O=C(CCCc1cn(S(=O)(=O)c2ccccc2)c2ccccc12)NCCCc1c[nH]cn1`, for which the pKa in data set [3] was found to be 7.
Consider `O=C(CCCc1cn(C(=O)c2cccs2)c2ccccc12)NCCCn1ccnc1`, for which the EC50 on Insulin-degrading enzyme is 21.4 µM.
